Legend:
4T1 breast cancer [1] = test: 4T1 breast cancer lung metastasis model of mice, experiment (1); assay type: in vivo, BALB/c mice; conditions: for breast tumor weight compared to the blank control group / number of metastatic nodules on the lung surface compared to the blank control group: tail vein once a week for 4 weeks, D28, IA1 10 mg/kg, DTX 5.7 mg/kg, MDC 10 mg/kg (equimolar); for breast tumor weight compared to the blank control group: FIG. 3A; for number of metastatic nodules on the lung surface compared to the blank control group: FIG. 3B
Experimental: • (1) Cell culture and tumor inoculation: 4T1 cells were cultured in 1640 medium (Gibco) containing 10% fetal bovine serum (Hyclone Corp, USA), 1% glutamine and 1% penicillin-streptomycin. The 4T1 cells in logarithmic growth phase were collected and the cell concentration was adjusted to 1.5×10^6/mL. 0.1 mL 4T1 cells (1.5×10^5/per mouse) were inoculated in the fourth mammary fat pad of female BALB/c mice.
Grouping and administration: BALB/c mice were inoculated with 4T1 breast cancer cells in the mammary fat pad. The day of inoculation was DO. Mice were administered in groups on the fourth day after inoculation. The experiment consisted of four groups: • (1) solvent control group (blank control group), • (2) IA1 10 mg/kg group, • (3) DTX (Docetaxel) 5.7 mg/kg group, • (4) MDC 10 mg/kg group. • (3) and (4) are positive control groups.
(§1) Each group had 10 animals. Mice were administered by tail vein injection once a week for 4 weeks. Animal weight and tumor volume were monitored during the administration. Animals were weighed every 2-3 days, and the long diameter and short diameter of breast tumors were measured with a vernier caliper. The tumor size was calculated by the formula: (½)×long diameter×(short diameter)^2. The experiment was terminated on the 28th day (D28). The mice were sacrificed by cervical dislocation after eyeball blood collection. The breast tumor and lung were weighed. The number of metastatic nodules on the lung surface was counted. The results of tumor weight are shown in FIG. 3A, and the results of the number of metastatic nodules on the lung surface are shown in FIG. 3B.

[2] = Stability of IA1 in different pH environments (HPLC main peak purity); assay type: physicochemical
Experimental: The method for measuring the impurity content in the following examples is as follows, with reference to 0512 liquid chromatography method in the “Chinese Pharmacopoeia” 2015 Edition Volume IV. 20 μl of the system suitability solution, the reference solution, and the test solution are injected into the liquid chromatograph respectively, and the chromatograms are recorded. Calculation formula: each
AT is the peak area of each impurity in the test solution; AS is the average peak area of the main peak in the reference solution; CT is the concentration (mg/ml) of the test solution; Cs is docetaxel conjugate concentration (mg/ml) in the reference solution; F is the correction factor for each impurity.
HPLC conditions: An octadecyl bonded silica gel column (C18, 4.6×150 mm, 3.5 μm); gradient elution, phase A: acetonitrile: 0.1% phosphoric acid=45:55, phase B: acetonitrile; detection wavelength: 225 nm; flow rate: 1.0 ml/min; column temperature: 40° C.

4T1 breast cancer [3] = test: 4T1 breast cancer lung metastasis model of mice, experiment (3); assay type: in vivo, BALB/c mice; conditions: for increase in tumor weight compared with the blank control group / increase in tumor volume compared with the blank control group: tail vein once a week for 4 weeks, IA1 5 and 10 mg/kg, DTX 2.85 mg/kg, DTX 2.85+MDA-1 2.26 mg/kg, DTX 2.85+MDA-1-linker 2.21 mg/kg; for increase in tumor weight compared with the blank control group: D28, FIG. 5B; for increase in tumor volume compared with the blank control group: FIG. 5A
Experimental: […]. Grouping and administration: BALB/c mice were inoculated with 4T1 breast cancer cells in the mammary fat pad. The day of inoculation was DO, and mice were administered in groups on the fourth day after inoculation. The experiment consisted of six groups: • (1) solvent control group (blank control group), • (2) IA1 5 mg/kg group, • (3) IA1 10 mg/kg group, • (4) DTX (Docetaxel) 2.85 mg/kg group, • (5) DTX (2.85 mg/kg)+MDA-1 (2.26 mg/kg) group, • (6) DTX (2.85 mg/kg)+MDA-1-linker (2.21 mg/kg) group. • (4), (5) and (6) are positive control groups.
as §1, with “counted.” for “counted. The results of tumor weight are shown in FIG. 3A, and the results of the number of metastatic nodules on the lung surface are shown in FIG. 3B.”

4T1 breast cancer [4] = test: 4T1 breast cancer lung metastasis model of mice, experiment (2); assay type: in vivo, BALB/c mice; conditions: for increase in breast tumor weight compared with the blank control group / increase in the number of metastatic nodules on the lung surface compared with the blank control group: tail vein once a week for 4 weeks, D28, DTX 5.7 mg/kg, DTX 5.7+MDA-1 4.53 mg/kg, DTX 5.7+MDA-1-linker 4.43 mg/kg; for increase in breast tumor weight compared with the blank control group: FIG. 4A
Experimental: 0.1 mL 4T1 cells (1.5×10^5/per mouse) were inoculated in the fourth mammary fat pad of female BALB/c mice.
Grouping and administration: BALB/c mice were inoculated with 4T1 breast cancer cells in the mammary fat pad. The day of inoculation was DO, and mice were administered in groups on the fourth day after inoculation. The experiment consisted of five groups: • (1) solvent control group (blank control group), • (2) IA1 10 mg/kg group, • (3) DTX (Docetaxel) 5.7 mg/kg group, • (4) DTX (5.7 mg/kg)+MDA-1 (4.53 mg/kg) group, • (5) DTX (5.7 mg/kg)+MDA-1-linker (4.43 mg/kg) group. • (3), (4) and (5) are positive control groups.
as §1, with “4A,” for “3A,”, “4B.” for “3B.”

| SMILES | inhibitory effects on tumor and cancer metastasis (4T1 breast cancer [1]; same experiment, compared with IA1) | breast tumor weight compared to the blank control group (4T1 breast cancer [1]) | number of metastatic nodules on the lung surface compared to the blank control group (4T1 breast cancer [1]) | Decrease in purity of main peak within 14 h (%) ([2]; Acetonitrile/pH 3.0 buffer) | Decrease in purity of main peak within 14 h (%) ([2]; Acetonitrile/pH 4.0 buffer) | Decrease in purity of main peak within 14 h (%) ([2]; Acetonitrile/pH 5.0 buffer) | Decrease in purity of main peak within 14 h (%) ([2]; Acetonitrile/pH 6.0 buffer) | Decrease in purity of main peak within 14 h (%) ([2]; Acetonitrile/pH 7.0 buffer) | Decrease in purity of main peak within 14 h (%) ([2]; Acetonitrile/pH 8.0 buffer) | difference in the inhibitory effects on tumor volume and weight versus positive control groups (4T1 breast cancer [3]; IA1 versus docetaxel, docetaxel+MDA-1, docetaxel+MDA-1-linker, FIGS. 5A and 5B) | increase in tumor weight compared with the blank control group (4T1 breast cancer [3]) | increase in tumor volume compared with the blank control group (4T1 breast cancer [3]) | increase of inhibitory effect on lung surface metastatic nodules compared with docetaxel+MDA-1 (4T1 breast cancer [4]; IA1 10 mg/kg versus DTX 5.7 mg/kg+MDA-1 4.53 mg/kg) [%] | increase of inhibitory effect on lung surface metastatic nodules compared with docetaxel+MDA-1+linker (4T1 breast cancer [4]; IA1 10 mg/kg versus DTX 5.7 mg/kg+MDA-1-linker 4.43 mg/kg) [%] | difference in the inhibitory effects on lung surface nodules versus positive control groups (4T1 breast cancer [4]; IA1 10 mg/kg, FIG. 4B) | increase in breast tumor weight compared with the blank control group (4T1 breast cancer [4]; IA1 10 mg/kg) | increase in the number of metastatic nodules on the lung surface compared with the blank control group (4T1 breast cancer [4]; IA1 10 mg/kg, FIG. 4B) |
| --- | --- | --- | --- | --- | --- | --- | --- | --- | --- | --- | --- | --- | --- | --- | --- | --- | --- |
| CC(=O)O[C@@]12CO[C@@H]1C[C@H](O)[C@@]1(C)C(=O)[C@H](O)C3=C(C)[C@@H](OC(=O)[C@H](OC(=O)CCC(=O)NCCCC[C@H](NC(=O)CC[C@@H](NC(=O)[C@H](C)NC(=O)/C=C/c4ccc(F)cc4Cl)C(N)=O)C(=O)O)[C@@H](NC(=O)OC(C)(C)C)c4ccccc4)C[C@@](O)([C@@H](OC(=O)c4ccccc4)[C@H]21)C3(C)C [IA1] | the most excellent | significantly inhibited | significantly inhibited | 0.11 | 0.19 | 0.19 | 0.51 | 7.38 | 22.55 | significant difference | significantly inhibited | significantly inhibited | 27.9 | 18.6 | significant difference | significantly inhibited | significantly inhibited |
| CC(=O)O[C@@]12CO[C@@H]1C[C@H](O)[C@@]1(C)C(=O)[C@H](O)C3=C(C)[C@@H](OC(=O)[C@H](O)[C@@H](NC(=O)OC(C)(C)C)c4ccccc4)C[C@@](O)([C@@H](OC(=O)c4ccccc4)[C@H]21)C3(C)C [docetaxel] | – | significantly inhibited | significantly inhibited | – | – | – | – | – | – | – | significantly inhibited | significantly inhibited | – | – | – | significantly inhibited | significantly inhibited |

— patent US11957758B2, “Pharmaceutical composition of docetaxel conjugate and preparation method” (SHENZHEN SALUBRIS PHARMACEUTICALS CO. LTD, priority 2017, dated 2024)
